Source: publication PMC5735191, “Computational and biological profile of boronic acids for the detection of bacterial serine- and metallo-β-lactamases” (Scientific Reports, 2017)
“And” between values parts separate entries of the source, which are not always exact repeats. Equal values may be shown once.

How the values were obtained:
NDM-1 = NDM-1 (Klebsiella pneumoniae, UniProt C7C422); experiment: Enzyme inhibition assay (spectrophotometric, cephalothin reporter substrate); type: biochemical; parameters: His-tag; made in house; host or cells: E. coli BL21(DE3), pET-15-NDM-1; settings: mean of two replicates, five inhibitor concentrations, Dixon plot; pH 7.5, 25 °C
Procedure: (§1) To obtain a well-characterized inhibition profile for each selected boronic acids against each BLs in the panel, the compounds were tested for inhibitory activity. The protein panel included clinically- and epidemiologically-relevant β-lactamases, representatives of each structural class (A to D), as mentioned above. Each BL was overexpressed in E. coli, purified by chromatography and characterized as already reported. (SI, Table S1)[40]–[45].
(§2) Reactions were initiated with addition of BL enzyme (the concentration values for each BL enzyme into the SI, Table S1 have been reported).

[1] = test system: P. aeruginosa 49, overproduction chromosomal AmpC; experiment: Susceptibility testing (MIC), synergy with ceftazidime; type: cell-based; settings: antibiotic:inhibitor 1:1 (w/w)
Procedure: (§3) The minimum inhibitory concentrations (MICs), for CAZ and CTX alone and in combination with boronic acids against resistant strains were determined (Table 2a,b).
(§4) Susceptibility testing was performed in Mueller Hinton broth and interpreted following the guidelines of the National Committee for Clinical Laboratory Standards[70]. To test the inhibitory activity, the compounds were dissolved in DMSO, 50% in water, and further dilutions were performed using growth medium. In all cases tests were performed at a final DMSO concentration below 5%, avoiding unwanted DMSO inhibition effect on strains growth (blank test control with DMSO were performed). The MICs of cefotaxime and ceftazidime alone and in association were determined against several relevant Gram-negative clinical isolates, selected from the pathogen collection of the Spanish Network for Research in Infectious Pathology (REIPI; Spain). The selection was based on strains capability of producing β-lactamases of interest for the present study. The antibiotic:inhibitor ratio was 1:1 (w/w).

[2] = test system: P. aeruginosa 199, overproduction chromosomal AmpC; experiment: as above; type: cell-based; settings: antibiotic:inhibitor 1:1 (w/w)
Procedure: as §3, §4

[3] = test system: E. coli clinical isolate, plasmidic AmpC - DHA1; experiment: as above; type: cell-based; settings: E. coli, plasmidic AmpC - DHA1; antibiotic:inhibitor 1:1 (w/w)
Procedure: as §3, §4

[4] = test system: P. aeruginosa 148, overproduction chromosomal AmpC; experiment: as above; type: cell-based; settings: antibiotic:inhibitor 1:1 (w/w)
Procedure: as §3, §4

[5] = test system: E. cloacae clinical isolate, overproduction chromosomal AmpC; experiment: as above; type: cell-based; settings: overproduction chromosomal AmpC, antibiotic:inhibitor 1:1 (w/w)
Procedure: as §3, §4

[6] = test system: E. aerogenes clinical isolate, overproduction chromosomal AmpC; experiment: as above; type: cell-based; settings: antibiotic:inhibitor 1:1 (w/w)
Procedure: as §3, §4

[7] = test system: P. aeruginosa 12, overproduction chromosomal AmpC; experiment: as above; type: cell-based; settings: antibiotic:inhibitor 1:1 (w/w)
Procedure: as §3, §4

[8] = test system: P. aeruginosa 120, overproduction chromosomal AmpC; experiment: as above; type: cell-based; settings: antibiotic:inhibitor 1:1 (w/w)
Procedure: as §3, §4

[9] = test system: E. coli clinical isolate, overproduction chromosomal AmpC; experiment: as above; type: cell-based; settings: antibiotic:inhibitor 1:1 (w/w)
Procedure: as §3, §4

KPC-2 = target: T1, KPC-2 (Klebsiella pneumoniae, UniProt Q9F663); experiment: Enzyme inhibition assay (spectrophotometric, cephalothin reporter substrate); type: biochemical; settings: mean of two replicates, five inhibitor concentrations, Dixon plot; pH 7.5, 25 °C
T1 construct: made in house; host or cells: E. coli BL21(DE3), pET9-KPC2
Procedure: as §1, §2

[10] = test system: VIM-2 P. aeruginosa clinical isolate; experiment: Susceptibility testing (MIC), synergy with cefotaxime; type: cell-based; settings: antibiotic:inhibitor 1:1 (w/w)
Procedure: as §3, §4

[11] = test system: KPC-2 K. pneumoniae clinical isolate; experiment: as above; type: cell-based; settings: KPC-2 K. pneumoniae; antibiotic:inhibitor 1:1 (w/w)
Procedure: as §3, §4

[12] = test system: OXA-24 A. baumanii clinical isolate; experiment: as above; type: cell-based; settings: antibiotic:inhibitor 1:1 (w/w)
Procedure: as §3, §4

[13] = test system: NDM-1 E. coli clinical isolate; experiment: as above; type: cell-based; settings: antibiotic:inhibitor 1:1 (w/w)
Procedure: as §3, §4

[14] = test system: CTX-M-15 E. coli clinical isolate; experiment: as above; type: cell-based; settings: for MIC of cefotaxime (CTX) in combination with compound: CTX-M-15 E. coli, antibiotic:inhibitor 1:1 (w/w)
Procedure: as §3, §4

VIM-2 = VIM-2 (Escherichia coli, UniProt Q5U7L7); experiment: Enzyme inhibition assay (spectrophotometric, cephalothin reporter substrate); type: biochemical; parameters: made in house; host or cells: E. coli BL21(DE3), pET9-VIM-2; settings: mean of two replicates, five inhibitor concentrations, Dixon plot; pH 7.5, 25 °C
Procedure: as §1, §2

AmpC β-lactamase = target: T2, AmpC β-lactamase (Pseudomonas aeruginosa, UniProt P24735); experiment: as above; type: biochemical, P. aeruginosa; settings: mean of two replicates, five inhibitor concentrations, Dixon plot, 100 μM cephalothin, pH 7.5, 25 °C
T2 construct: made in house; host or cells: E. coli BL21(DE3), plasmid pET-9aAmpC
Procedure: as §1, §2
(§5) From the resulting inhibition percentages at each different inhibitor concentration and, assuming a competitive inhibition for the boronic compounds panel, it was possible to calculate the IC50 values from the Dixon plot 1/V vs [I], using the equation IC50 = […][61], where v0 is the rate of hydrolysis of the reporter substrate (v0 being the rate measured in the absence of inhibitor), q the y axis intercept and m the slope of the resulting linear regression.

OXA-24 = target: T3, OXA-24 (Acinetobacter baumannii, UniProt Q8RLA6); experiment: as above; type: biochemical
T3 construct: GST (N, cleaved yes); made in house; host or cells: E. coli DH5α, pGEX-2T-OXA-24
Procedure: as §1, §2, §5

CTX-M-15 = target: T4, CTX-M-15 (Escherichia coli, UniProt Q9EXV5); experiment: as above; type: biochemical; settings: IC50 CTX-M-15, mean of two replicates, five inhibitor concentrations, Dixon plot; pH 7.5, 25 °C
T4 construct: made in house; host or cells: E. coli BL21(DE3), pET-9a derivative (pET-CTX-M-15)
Procedure: as §1, §2, §5

[15] = test system: CC(=O)OCC1=C(C(=O)O)N2C(=O)[C@@H](NC(=O)Cc3cccs3)[C@H]2SC1; experiment: purified protein, by the assay type; settings: 37.0 °C
[16] = other: β-lactam substrate of AmpC, enzyme 0.019 µM
[17] = other: β-lactam substrate of CTX-M-15, enzyme 0.067 µM
[18] = other: β-lactam substrate of OXA-24, enzyme 0.035 µM

T1 sequence (Q9F663 25-293 limits assumed): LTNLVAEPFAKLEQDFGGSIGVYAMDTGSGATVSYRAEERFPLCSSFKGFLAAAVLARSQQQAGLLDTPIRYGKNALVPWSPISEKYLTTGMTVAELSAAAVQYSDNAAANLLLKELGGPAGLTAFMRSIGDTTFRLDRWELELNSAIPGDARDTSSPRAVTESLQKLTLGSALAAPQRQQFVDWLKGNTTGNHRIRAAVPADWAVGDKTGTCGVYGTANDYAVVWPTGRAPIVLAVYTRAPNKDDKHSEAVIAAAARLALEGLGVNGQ
Sequence of NDM-1 (C7C422 29-270 limits assumed): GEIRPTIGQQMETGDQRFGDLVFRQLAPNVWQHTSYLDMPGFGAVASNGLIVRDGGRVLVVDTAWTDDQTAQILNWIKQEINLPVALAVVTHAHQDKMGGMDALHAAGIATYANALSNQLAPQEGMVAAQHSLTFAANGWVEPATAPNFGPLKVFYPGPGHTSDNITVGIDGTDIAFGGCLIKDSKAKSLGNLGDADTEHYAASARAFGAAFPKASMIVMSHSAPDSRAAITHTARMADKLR
T3 sequence (Q8RLA6 22-275 limits assumed): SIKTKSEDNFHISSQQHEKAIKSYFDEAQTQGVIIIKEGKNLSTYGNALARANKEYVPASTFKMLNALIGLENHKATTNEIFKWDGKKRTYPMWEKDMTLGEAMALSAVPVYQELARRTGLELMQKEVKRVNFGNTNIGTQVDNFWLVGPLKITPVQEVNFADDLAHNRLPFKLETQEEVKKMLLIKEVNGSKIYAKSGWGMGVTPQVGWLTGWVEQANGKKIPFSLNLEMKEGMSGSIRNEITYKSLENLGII
T4 sequence (Q9EXV5 entry or part of it): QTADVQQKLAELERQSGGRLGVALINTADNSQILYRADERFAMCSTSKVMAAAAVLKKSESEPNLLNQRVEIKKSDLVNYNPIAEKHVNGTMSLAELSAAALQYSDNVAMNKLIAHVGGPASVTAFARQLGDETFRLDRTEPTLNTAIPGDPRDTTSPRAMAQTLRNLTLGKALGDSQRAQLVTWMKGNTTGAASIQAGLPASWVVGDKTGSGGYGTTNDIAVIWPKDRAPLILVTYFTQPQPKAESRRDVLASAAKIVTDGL
T2 sequence (P24735 27-397): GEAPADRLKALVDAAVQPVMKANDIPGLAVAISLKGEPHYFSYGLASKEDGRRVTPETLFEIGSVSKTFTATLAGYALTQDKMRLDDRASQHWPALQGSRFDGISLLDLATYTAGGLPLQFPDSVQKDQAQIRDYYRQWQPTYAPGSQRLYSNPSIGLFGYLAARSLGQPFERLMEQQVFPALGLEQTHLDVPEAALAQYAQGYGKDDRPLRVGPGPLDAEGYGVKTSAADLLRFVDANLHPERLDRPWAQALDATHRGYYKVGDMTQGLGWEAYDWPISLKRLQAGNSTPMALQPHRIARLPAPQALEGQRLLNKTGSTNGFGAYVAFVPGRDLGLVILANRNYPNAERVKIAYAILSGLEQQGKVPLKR

Row | Molecule | IC50 (NDM-1) [µM] | MIC of ceftazidime (CAZ) in combination with compound [1] [µg/mL] | MIC of ceftazidime (CAZ) in combination with compound [2] [µg/mL] | MIC of ceftazidime (CAZ) in combination with compound [3] [µg/mL] | MIC of ceftazidime (CAZ) in combination with compound [4] [µg/mL] | MIC of ceftazidime (CAZ) in combination with compound [5] [µg/mL] | MIC of ceftazidime (CAZ) in combination with compound [7] [µg/mL] | MIC of ceftazidime (CAZ) in combination with compound [8] [µg/mL] | MIC of ceftazidime (CAZ) in combination with compound [9] [µg/mL] | IC50 (KPC-2) | MIC of cefotaxime (CTX) in combination with compound [11] [µg/mL] | MIC of cefotaxime (CTX) in combination with compound [12] [µg/mL] | MIC of cefotaxime (CTX) in combination with compound [13] [µg/mL] | MIC of cefotaxime (CTX) in combination with compound [14] [µg/mL] | IC50 (VIM-2) [µM] | IC50 (AmpC β-lactamase) [µM] | IC50 (OXA-24) [µM] | IC50 (CTX-M-15) [µM] | also measured
1 | CC1(C)OB(c2cc3cccc(C(=O)O)c3s2)OC1(C)C [Compound 5] | 32.4 ± 7.14 | 32 | 16 | 512 | 32 | 64 | 16 | 4 | 64 | 5.38 µM and 8.2 µM | 4 | 16 | 1024 | 16 | 27.7 ± 3.65 | 1.3 ± 0.01 | 23 ± 4.38 | 9.4 ± 3.48 | MIC of ceftazidime (CAZ) in combination with compound [6]: 32 µg/mL; MIC of cefotaxime (CTX) in combination with compound [10]: 1024 µg/mL; MIC reduction of CTX (fold) ([14]; E. coli producing CTX-M-15, CTX combination): 4 fold
2 | CC(C)(C)OC(=O)Nc1cccc2cc(B(O)O)sc12 [Compound 6] | 117 ± 9.72 | 64 | 64 | 512 | 64 | 64 | 64 | 4 | 64 | 2.25 µM and 2.3 µM | 4 | 16 | 64 | 16 | 103 ± 14.2 | 4.4 ± 0.83 | 88 ± 14 | 9.8 ± 3.34 | 
3 | AmpC (Pseudomonas aeruginosa PAO1) |  |  |  |  |  |  |  |  |  |  |  |  |  |  |  |  |  |  | Km [15, 16]: 33 ± 2 µM; kcat [15, 16]: 159 ± 32 s⁻¹; kcat/Km [15, 16]: 4.82e+06 M⁻¹ s⁻¹
4 | CTX-M-15 (Escherichia coli) |  |  |  |  |  |  |  |  |  |  |  |  |  |  |  |  |  |  | Km [15, 17]: 41 ± 3 µM; kcat [15, 17]: 35 ± 7 s⁻¹; kcat/Km [15, 17]: 850000 M⁻¹ s⁻¹
5 | OXA-24 (Acinetobacter baumannii) |  |  |  |  |  |  |  |  |  |  |  |  |  |  |  |  |  |  | Km [15, 18]: 20 ± 2 µM; kcat [15, 18]: 1000 ± 150 s⁻¹; kcat/Km [15, 18]: 5e+07 M⁻¹ s⁻¹
